Earlier results, collected in publication PMC3073735 (Chemistry & biology, 2011).
Where no end group is shown, it is not given here.

System: ferroportin
Settings: ref Nemeth, et al., 2006

In the case of “M21Y: synthetic hepcidin mutant from the literature (DTHFPICIFCCGCCHRSKCGYCCKT-OH; disulfide (positions not given here); ends not checked; UniProt P81172 60-84, looked up, variant M21Y)”, the “activity compared with native hepcidin” value is given as “comparable activity to native hepcidin”.
